Where a SMILES comes first, the peptide text is derived from it.
System: HepG2 cells
Assay: MTT assay, cell proliferation viability of normal HepG2 cells
Type: cell-based
Details: 256 μM, FIG. 5A
Description: i) MTT (also referred to as thiazole blue) assay is used to detect the effects of various components (LPH-I, LPH-II and LPH-III) on the cell proliferation viability of normal HepG2 cells: HepG2 cells in logarithmic growth period are taken and prepared into a cell suspension of 4×10^5 cells/mL with the high glucose DMEM medium containing 10% FBS. Sample wells are set in a 96-well plate, and 100 μL of cell suspension is added to each sample well, and the cells are cultured in a cell incubator for 24 hours to adhere to the wall. After removing the culture medium from the sample wells, the components LPH-I (>10 kDa), LPH-II (3-10 kDa) and LPH-III (<3 kDa) are respectively dissolved in the high glucose DMEM culture medium containing 10% FBS to prepare an oligopeptide culture medium with a concentration of 150 μg/mL, and then added to each sample well, with a volume of 100 μL per well. A blank well is set, no cells are present compared with the sample wells, and 100 μL PBS phosphate buffer (1×, pH 7.2) is used to replace the oligopeptide culture medium. A control well is set with cells compared with the sample wells, and 100 μL PBS phosphate buffer (1×, pH 7.2) is used to replace the oligopeptide culture medium. […] The absorbance is measured at 570 nanometers (nm) wavelength in a microplate reader. […]

Compound: C[C@H](N)C(=O)N[C@@H](Cc1ccc(O)cc1)C(=O)N1CCC[C@H]1C(=O)N[C@@H](Cc1ccccc1)C(=O)O [AYPF] (H-AYPF-OH; N-terminus and C-terminus assumed)
- effect on the cell viability: a certain effect

Source: patent publication US12077797B2, “Oligopeptide with lipid-lowering activity, preparation method and application thereof” (Nanjing University of Finance and Economics, priority 2022, dated 2024)
